Results from patent publication US9718817B2, “Aryl and heteroaryl ether compounds as ROR gamma modulators” (Glenmark Pharmaceuticals S.A., priority 2014, dated 2017).

Molecular target: T1, GST-tagged ROR gamma ligand binding domain (LBD) (Homo sapiens, UniProt P51449)
T1 construct: purchased Invitrogen
T1 sequence (P51449 269-508 limits assumed): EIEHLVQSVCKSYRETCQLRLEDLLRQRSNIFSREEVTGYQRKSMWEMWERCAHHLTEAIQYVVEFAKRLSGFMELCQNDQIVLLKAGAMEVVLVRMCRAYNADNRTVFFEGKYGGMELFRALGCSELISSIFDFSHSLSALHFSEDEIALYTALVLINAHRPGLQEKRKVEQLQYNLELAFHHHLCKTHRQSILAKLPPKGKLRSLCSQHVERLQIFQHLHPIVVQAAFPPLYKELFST
Assay: TR-FRET assay for ROR gamma (LanthaScreen co-activator peptide recruitment)
Assay type: biochemical
Conditions: for IC50: class symbols, from dose response curve; for inhibition at 1 µM: compound 1 μM; for inhibition at 1 µM / inhibition at 10 µM: TR-FRET ratio 520/495, percent of control; for inhibition at 10 µM: compound 10 μM
Source text: The compounds described herein were screened for ROR gamma modulator activity using the TR-FRET assay by Lantha Screen as described in JBC 2011, 286, 26: 22707-10; and Drug Metabolism and Disposition 2009, 37, 10: 2069-78.
The assay is based on the principle that binding of the agonist to the ROR gamma causes a conformational change around helix 12 in the ligand binding domain, resulting in higher affinity for the co-activator peptide. ROR gamma being constitutively active, the Fluorescein-D22 co-activator peptide used in the assay is recruited in the absence of a ligand. Binding of the co-activator peptide, causes an increase in the TR-FRET signal while binding of an antagonist decreases the recruitment of the co-activator peptide, causing a decrease in the TR-FRET signal compared to control with no compound. The assay was performed using a two-step procedure, pre-incubation step with the compound followed by the detection step on addition of the anti-GST tagged terbium (Tb) and fluorescein tagged fluorophores as the acceptor.
Test compounds or reference compounds such as T0901317 (Calbiochem) were dissolved in dimethylsulfoxide (DMSO) to prepare 10.0 mM stock solutions and diluted to the desired concentration. The final concentration of DMSO in the reaction was 4% (v/v). The assay mixture was prepared by mixing 10 nM of the GST-tagged ROR gamma ligand binding domain (LBD) in the assay buffer containing 25 mM HEPES (pH 7.4), 100 mM NaCl, 5 mM DTT and 0.01% BSA with or without the desired concentration of the compound. The reaction was incubated at 22° C. for 1 hour. The pre-incubation step was terminated by addition of the detection mixture containing 300 nM Fluorescein-D22 co-activator peptide and 10 nM lantha screen Tb-anti GST antibody into the reaction mixture. After shaking for 5 minutes the reaction was further incubated for 1 hour at room temperature and read at 4° C. on an Infinite F500 reader as per the kit instructions (Invitrogen). The inhibition of test compound was calculated based on the TR-FRET ratio of 520/495. The activity was calculated as a percent of control reaction. IC50 values were calculated from dose response curve by nonlinear regression analysis using GraphPad Prism software.
Percentage inhibition at concentrations of 1.0 μM and 10.0 μM are given in the table along with IC50 (nM) details for selected examples.

SMILES: CCS(=O)(=O)c1ccc(CC(=O)Nc2ccc(OC3(c4nc5cc(Cl)ccc5n4C)CCC3)cc2)cc1 [Example 25, N-{4-[1-(5-Chloro-1-methyl-1H-benzoimidazol-2-yl)-cyclobutoxy]-phenyl}-2-(4-ethanesulfonyl-phenyl)-acetamide]
- IC50: 50 to 100 nM
- inhibition at 1 µM: 85.3%
- inhibition at 10 µM: 94.2%

SMILES: CCn1c(C2(Oc3ccc(NC(=O)Cc4ccc(S(=O)(=O)CC)cc4)cc3)CCC2)nc2cc(F)ccc21 [Example 26, 2-(4-Ethanesulfonyl-phenyl)-N-{4-[1-(1-ethyl-5-fluoro-1H-benzoimidazol-2-yl)-cyclobutoxy]-phenyl}-acetamide]
- IC50: 50 to 100 nM
- inhibition at 1 µM: 80.5%
- inhibition at 10 µM: 90.9%

SMILES: CCS(=O)(=O)c1ccc(CC(=O)Nc2ccc(OC3(c4nnc5ccc(Cl)cn45)CCC3)cc2)cc1 [Example 27, N-{4-[1-(6-Chloro-[1,2,4]triazolo[4,3-a]pyridin-3-yl)-cyclobutoxy]-phenyl}-2-(4-ethanesulfonyl-phenyl)-acetamide]
- IC50: 50 to 100 nM
- inhibition at 1 µM: 69.7%
- inhibition at 10 µM: 90%

SMILES: CCS(=O)(=O)c1ccc(CC(=O)Nc2ccc(OC(C)(C)c3noc(-c4ccc(Cl)cc4)n3)cc2)cc1 [Example 28, N-(4-{1-[5-(4-Chloro-phenyl)-[1,2,4]oxadiazol-3-yl]-1-methyl-ethoxy}-phenyl)-2-(4-ethanesulfonyl-phenyl)-acetamide]
- inhibition at 1 µM: 61.1%
- inhibition at 10 µM: 84.4%

SMILES: CCS(=O)(=O)c1ccc(CC(=O)Nc2ccc(OC(C)(C)Cn3ccc4cc(Cl)ccc43)cc2)cc1 [Example 29, N-(4-{[1-(5-Chloro-1H-indol-1-yl)-2-methylpropan-2-yl]oxy}phenyl)-2-[4-(ethylsulfonyl)phenyl]acetamide]
- IC50: < 50 nM
- inhibition at 1 µM: 80.3%
- inhibition at 10 µM: 82.8%

SMILES: CCS(=O)(=O)c1ccc(CC(=O)Nc2ccc(OC(C)(C)Cn3c(C)cc4cc(F)ccc43)cc2)cc1 [Example 30, 2-[4-(Ethylsulfonyl)phenyl]-N-(4-{[1-(5-fluoro-2-methyl-1H-indol-1-yl)-2-methylpropan-2-yl]oxy}phenyl)acetamide]
- inhibition at 1 µM: 67.7%
- inhibition at 10 µM: 70.7%

SMILES: CCS(=O)(=O)c1ccc(CC(=O)Nc2ccc(OC3(c4ccc(Cl)cc4)CCC3)cc2)cc1 [Example 31, N-{4-[1-(4-Chloro-phenyl)-cyclobutoxy]-phenyl}-2-(4-ethanesulfonyl-phenyl)-acetamide]
- IC50: 50 to 100 nM
- inhibition at 1 µM: 81.9%
- inhibition at 10 µM: 89.1%

SMILES: CCS(=O)(=O)c1ccc(CC(=O)Nc2ccc(OC3(c4ccc(Cl)c(F)c4)CCC3)cc2)cc1 [Example 32, N-(4-{[1-(4-Chloro-3-fluorophenyl)cyclobutyl]oxy}phenyl)-2-[4-(ethylsulfonyl)phenyl]acetamide]
- IC50: < 50 nM
- inhibition at 1 µM: 83.7%
- inhibition at 10 µM: 88.5%

SMILES: CCS(=O)(=O)c1ccc(CC(=O)Nc2ccc(OC3(c4ccc(Cl)cc4F)CCC3)cc2)cc1 [Example 33, N-(4-{[1-(4-Chloro-2-fluorophenyl)cyclobutyl]oxy}phenyl)-2-[4-(ethylsulfonyl)phenyl]acetamide]
- inhibition at 1 µM: 76.7%
- inhibition at 10 µM: 81.8%

SMILES: CCS(=O)(=O)c1ccc(CC(=O)Nc2ccc(OC3(c4ccc(F)c(F)c4)CCC3)cc2)cc1 [Example 34, N-{4-[1-(3,4-Difluoro-phenyl)-cyclobutoxy]-phenyl}-2-(4-ethanesulfonyl-phenyl)-acetamide]
- IC50: < 50 nM
- inhibition at 1 µM: 86.6%
- inhibition at 10 µM: 89.7%

SMILES: CCS(=O)(=O)c1ccc(CC(=O)Nc2ccc(OC3(c4ccc(F)c(F)c4)CCOCC3)cc2)cc1 [Example 35, N-{4-[4-(3,4-Difluoro-phenyl)-tetrahydro-pyran-4-yloxy]-phenyl}-2-(4-ethanesulfonyl-phenyl)-acetamide]
- IC50: 50 to 100 nM
- inhibition at 1 µM: 79.5%
- inhibition at 10 µM: 86.7%

SMILES: CCS(=O)(=O)c1ccc(CC(=O)Nc2ccc(OC3(c4ccc(Cl)cc4F)CCOCC3)cc2)cc1 [Example 36, N-(4-{[4-(4-Chloro-2-fluorophenyl)tetrahydro-2H-pyran-4-yl]oxy}phenyl)-2-[4-(ethylsulfonyl)phenyl]acetamide]
- inhibition at 1 µM: 69.9%
- inhibition at 10 µM: 74.7%

SMILES: CCS(=O)(=O)c1ccc(CC(=O)Nc2ccc(OC3(c4ccc(Cl)cc4)CCOCC3)cc2)cc1 [Example 37, N-{4-[4-(4-Chlorophenyl)-tetrahydro-pyran-4-yloxy]-phenyl}-2-(4-ethanesulfonyl-phenyl)-acetamide]
- IC50: > 100 nM
- inhibition at 1 µM: 80.8%
- inhibition at 10 µM: 83.2%

SMILES: CCS(=O)(=O)c1ccc(CC(=O)Nc2ccc(OC3(c4ccc(Cl)c(F)c4)CCOCC3)cc2)cc1 [Example 38, N-{4-[4-(4-Chloro-3-fluoro-phenyl)-tetrahydro-pyran-4-yloxy]-phenyl}-2-(4-ethanesulfonyl-phenyl)-acetamide]
- IC50: < 50 nM
- inhibition at 1 µM: 85.8%
- inhibition at 10 µM: 87.8%

SMILES: CCS(=O)(=O)c1ccc(CC(=O)Nc2ccc(OC3(c4ccc(Cl)c(Cl)c4)CCOCC3)cc2)cc1 [Example 39, N-{4-[4-(3,4-Dichloro-phenyl)-tetrahydro-pyran-4-yloxy]-phenyl}-2-(4-ethanesulfonyl-phenyl)-acetamide]
- IC50: 50 to 100 nM
- inhibition at 1 µM: 87.7%
- inhibition at 10 µM: 94.8%

SMILES: CCS(=O)(=O)c1ccc(CC(=O)Nc2ccc(OC3(c4ccc(Cl)cc4Cl)CCOCC3)cc2)cc1 [Example 40, N-{4-[4-(2,4-Dichloro-phenyl)-tetrahydro-pyran-4-yloxy]-phenyl}-2-(4-ethanesulfonyl-phenyl)-acetamide]
- IC50: < 50 nM
- inhibition at 1 µM: 77.4%
- inhibition at 10 µM: 81.9%

SMILES: CCS(=O)(=O)c1ccc(CC(=O)Nc2ccc(OC3(c4ccc(C(F)(F)F)c(F)c4)CCOCC3)cc2)cc1 [Example 41, 2-(4-Ethanesulfonyl-phenyl)-N-{4-[4-(3-fluoro-4-trifluoromethyl-phenyl)-tetrahydro-pyran-4-yloxy]-phenyl}-acetamide]
- IC50: > 100 nM
- inhibition at 1 µM: 78%
- inhibition at 10 µM: 87.2%

SMILES: CCS(=O)(=O)c1ccc(CC(=O)Nc2ccc(OC3(c4ccc(F)c(C(F)(F)F)c4)CCOCC3)cc2)cc1 [Example 42, 2-(4-Ethanesulfonyl-phenyl)-N-{4-[4-(4-fluoro-3-trifluoromethyl-phenyl)-tetrahydro-pyran-4-yloxy]-phenyl}-acetamide]
- inhibition at 1 µM: 65.9%
- inhibition at 10 µM: 86%

SMILES: CCS(=O)(=O)c1ccc(CC(=O)Nc2ccc(OC3(c4ccc(Cl)c(F)c4)CCNCC3)cc2)cc1 [Example 43, N-(4-{[4-(4-Chloro-3-fluorophenyl)piperidin-4-yl]oxy}phenyl)-2-[4-(ethylsulfonyl)phenyl]acetamide]
- inhibition at 1 µM: 27.3%
- inhibition at 10 µM: 55%

SMILES: CCS(=O)(=O)c1ccc(CC(=O)Nc2ccc(OC3(c4ccc(Cl)c(F)c4)CCN(C)CC3)cc2)cc1 [Example 44, N-{4-[4-(4-Chloro-3-fluoro-phenyl)-1-methyl-piperidin-4-yloxy]-phenyl}-2-(4-ethanesulfonyl-phenyl)-acetamide]
- inhibition at 1 µM: 44.6%
- inhibition at 10 µM: 70%

SMILES: CCS(=O)(=O)c1ccc(CC(=O)Nc2ccc(OC3(c4ccc(Cl)c(F)c4)COC3)cc2)cc1 [Example 45, N-{4-[3-(4-Chloro-3-fluoro-phenyl)-oxetan-3-yloxy]-phenyl}-2-(4-ethanesulfonyl-phenyl)-acetamide]
- IC50: < 50 nM
- inhibition at 1 µM: 76.8%
- inhibition at 10 µM: 85.7%

SMILES: CCS(=O)(=O)c1ccc(CC(=O)Nc2ccc(OC3(c4ccc(Cl)c(Cl)c4)COC3)cc2)cc1 [Example 46, N-{4-[3-(3,4-Dichlorophenyl)-oxetan-3-yloxy]-phenyl}-2-(4-ethanesulfonyl-phenyl)-acetamide]
- IC50: > 100 nM
- inhibition at 1 µM: 68.1%
- inhibition at 10 µM: 86.3%

SMILES: CCS(=O)(=O)c1ccc(CC(=O)Nc2ccc(OC3(c4ccc(Cl)cc4Cl)COC3)cc2)cc1 [Example 47, N-{4-[3-(2,4-Dichlorophenyl)-oxetan-3-yloxy]-phenyl}-2-(4-ethanesulfonyl-phenyl)-acetamide]
- IC50: < 50 nM
- inhibition at 1 µM: 90.3%
- inhibition at 10 µM: 93.2%
